Test results as given in PubChem BioAssay AID248 (DTP/NCI, 2004).
Toxic doses and inconclusive results are not listed. Rule as the data show it: active = T/C of 150% or more; inactive = T/C below 125%.

Tested on: L1210 leukemia ip in BDF1 mice, survival T/C
Assay: NCI In Vivo Anticancer Drug Screen. Data for tumor model L1210 Leukemia (intraperitoneal) in B6D2F1 (BDF1) mice
Conditions: endpoint: mean survival time, higher = longer survival
Summary of the method: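 Value reflects the ratio of survival in compound-treated mice to survival in vehicle-treated controls, with both groups carrying the same transplanted tumor.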

[1] = dose: 100.0 mg/kg/injection, schedule: Q01DX009 (ip), vehicle: Klucel (hydroxypropylcellulose) (HPC)
[2] = dose: 200.0 mg/kg/injection, schedule: Q01DX009 (ip), vehicle: Klucel (hydroxypropylcellulose) (HPC)
[3] = dose: 100.0 mg/kg/injection, schedule: Q04DX002 (ip), vehicle: Klucel (hydroxypropylcellulose) (HPC)
[4] = dose: 200.0 mg/kg/injection, schedule: Q04DX002 (ip), vehicle: Klucel (hydroxypropylcellulose) (HPC)
[5] = dose: 400.0 mg/kg/injection, schedule: Q04DX002 (ip), vehicle: Klucel (hydroxypropylcellulose) (HPC)
[6] = dose: 100.0 mg/kg/injection, schedule: Q01DX001 (ip), vehicle: saline
[7] = dose: 200.0 mg/kg/injection, schedule: Q01DX001 (ip), vehicle: saline
[8] = dose: 400.0 mg/kg/injection, schedule: Q01DX001 (ip), vehicle: saline
[9] = dose: 100.0 mg/kg/injection, schedule: Q01DX001 (ip), vehicle: carboxymethylcellulose (CMC)
[10] = dose: 200.0 mg/kg/injection, schedule: Q01DX001 (ip), vehicle: carboxymethylcellulose (CMC)
[11] = dose: 400.0 mg/kg/injection, schedule: Q01DX001 (ip), vehicle: carboxymethylcellulose (CMC)
[12] = dose: 100.0 mg/kg/injection, schedule: Q01DX009 (ip), vehicle: saline with Tween-80
[13] = dose: 200.0 mg/kg/injection, schedule: Q01DX009 (ip), vehicle: saline with Tween-80
[14] = dose: 100.0 mg/kg/injection, schedule: Q04DX003 (ip), vehicle: Klucel (hydroxypropylcellulose) (HPC)
[15] = dose: 200.0 mg/kg/injection, schedule: Q04DX003 (ip), vehicle: Klucel (hydroxypropylcellulose) (HPC)
[16] = dose: 400.0 mg/kg/injection, schedule: Q04DX003 (ip), vehicle: Klucel (hydroxypropylcellulose) (HPC)
[17] = dose: 75.0 mg/kg/injection, schedule: Q01DX001 (ip), vehicle: other
[18] = dose: 150.0 mg/kg/injection, schedule: Q01DX001 (ip), vehicle: other

Measured: T/C

Cc1ccc(NC(=S)N(CCC#N)C2CCCCC2)cc1
inactive: [1] 101 % of control | [2] 104 % of control | dose: 400.0 mg/kg/injection, schedule: Q01DX009 (ip), vehicle: Klucel (hydroxypropylcellulose) (HPC) 101 % of control

CN=C(C)C1=C(O)C(CC(=O)OC)N(C)C1=O (centres undefined)
inactive: dose: 100.0 mg/kg/injection, schedule: Q04DX003 (ip), vehicle: saline 103 % of control | dose: 200.0 mg/kg/injection, schedule: Q04DX003 (ip), vehicle: saline 102 % of control | dose: 400.0 mg/kg/injection, schedule: Q04DX003 (ip), vehicle: saline 96 % of control

CC1C(c2ccccc2)OCCN1CN1C(=O)c2ccccc2C1=O (centres undefined)
inactive: [3] 100 % of control | [4] 104 % of control | [5] 104 % of control

Cc1c(O)c(CN2CCOCC2)cc(CN2CCOCC2)c1O
inactive: [6] 86 % of control | [7] 90 % of control | [8] 86 % of control

O=P1(Nc2ccccc2)OCCCN1Cc1ccccc1Cl (centres undefined)
inactive: dose: 50.0 mg/kg/injection, schedule: Q01DX001 (ip), vehicle: carboxymethylcellulose (CMC) 98 % of control | [9] 98 % of control | [10] 98 % of control | [11] 93 % of control

CCOC(=O)c1ccc(NC(=O)Sc2ccc(C(C)(C)C)cc2C)cc1
inactive: [12] 96 % of control | [13] 100 % of control

CC=NCc1ccccc1
inactive: dose: 50.0 mg/kg/injection, schedule: Q01DX009 (sc), vehicle: olive oil, sesame oil, peanut oil 98 % of control | dose: 100.0 mg/kg/injection, schedule: Q01DX009 (sc), vehicle: olive oil, sesame oil, peanut oil 114 % of control | dose: 100.0 mg/kg/injection, schedule: Q04DX003 (sc), vehicle: olive oil, sesame oil, peanut oil 105 % of control | dose: 200.0 mg/kg/injection, schedule: Q04DX003 (sc), vehicle: olive oil, sesame oil, peanut oil 98 % of control

CCOC(=O)C(CNc1cccc2ccncc12)C(=O)OCC
inactive: dose: 50.0 mg/kg/injection, schedule: Q01DX009 (ip), vehicle: saline with Tween-80 109 % of control | [12] 94 % of control | [13] 115 % of control

CNC(Cc1ccccc1)c1ccc(OC)cc1 (centres undefined)
inactive: [1] 100 % of control | [14] 96 % of control | [2] 98 % of control | [15] 98 % of control | [16] 101 % of control

CC(C)(C)N1CC(C(=O)O)C1
inactive: [6] 97 % of control | [7] 103 % of control | [8] 97 % of control

COC(=O)c1ccccc1C(=O)OCC(C)(C)[N+](=O)[O-]
inactive: [14] 100 % of control | [15] 97 % of control | [16] 107 % of control

COc1ccc2ccccc2c1Br
inactive: [9] 98 % of control | [10] 98 % of control | [11] 98 % of control

CCOC(=O)Nc1cc(Nc2ccc(Cl)cc2)c2ncc(C)nc2n1
inactive: dose: 25.0 mg/kg/injection, schedule: Q04DX003 (ip), vehicle: Klucel (hydroxypropylcellulose) (HPC) 102 % of control | dose: 50.0 mg/kg/injection, schedule: Q04DX003 (ip), vehicle: Klucel (hydroxypropylcellulose) (HPC) 102 % of control | [14] 96 % of control

CC1N2CC12c1ccccc1 (centres undefined)
inactive: dose: 10.0 mg/kg/injection, schedule: Q01DX001 (ip), vehicle: saline 103 % of control | dose: 20.0 mg/kg/injection, schedule: Q01DX001 (ip), vehicle: saline 108 % of control | dose: 40.0 mg/kg/injection, schedule: Q01DX001 (ip), vehicle: saline 103 % of control

O=CN(N=O)c1ccc(Br)cc1
inactive: [17] 96 % of control | [18] 101 % of control | dose: 300.0 mg/kg/injection, schedule: Q01DX001 (ip), vehicle: other 103 % of control

O=C(c1ccsc1)C(O)c1ccccc1 (centres undefined)
inactive: [9] 97 % of control | [10] 87 % of control | [11] 103 % of control

COc1cccc(/C(C)=C2\SC(=S)NC2=O)c1
inactive: [9] 100 % of control | [10] 94 % of control

Clc1ccc(COC(Cn2ccnc2)c2ccc(Cl)cc2Cl)cc1 (centres undefined)
inactive: dose: 25.0 mg/kg/injection, schedule: Q04DX002 (ip), vehicle: DMSO 93 % of control | dose: 50.0 mg/kg/injection, schedule: Q04DX002 (ip), vehicle: DMSO 93 % of control | dose: 100.0 mg/kg/injection, schedule: Q04DX002 (ip), vehicle: DMSO 97 % of control

COc1cc(CC(=O)O)c(Br)cc1C
inactive: dose: 100.0 mg/kg/injection, schedule: Q01DX009 (ip), vehicle: saline 97 % of control | dose: 100.0 mg/kg/injection, schedule: Q04DX003 (ip), vehicle: saline with Tween-80 101 % of control | dose: 200.0 mg/kg/injection, schedule: Q01DX009 (ip), vehicle: saline 109 % of control | dose: 200.0 mg/kg/injection, schedule: Q04DX003 (ip), vehicle: saline with Tween-80 104 % of control | dose: 400.0 mg/kg/injection, schedule: Q01DX009 (ip), vehicle: saline 92 % of control | dose: 400.0 mg/kg/injection, schedule: Q04DX003 (ip), vehicle: saline with Tween-80 108 % of control

CN=C(N)N(C)/N=C(C)\C=N\N(C)C(N)=NC
inactive: dose: 15.0 mg/kg/injection, schedule: Q01DX Z (ip), vehicle: carboxymethylcellulose (CMC) 98 % of control | dose: 30.0 mg/kg/injection, schedule: Q01DX Z (ip), vehicle: carboxymethylcellulose (CMC) 96 % of control | dose: 60.0 mg/kg/injection, schedule: Q01DX Z (ip), vehicle: carboxymethylcellulose (CMC) 101 % of control | dose: 120.0 mg/kg/injection, schedule: Q01DX Z (ip), vehicle: carboxymethylcellulose (CMC) 113 % of control | dose: 240.0 mg/kg/injection, schedule: Q01DX Z (oral), vehicle: carboxymethylcellulose (CMC) 104 % of control | dose: 480.0 mg/kg/injection, schedule: Q01DX Z (oral), vehicle: carboxymethylcellulose (CMC) 104 % of control

O=[N+]([O-])c1ccc(Oc2cccc([N+](=O)[O-])c2)cc1
inactive: dose: 222.0 mg/kg/injection, schedule: Q01DX Z (ip), vehicle: methylcellulose (MC) 90 % of control | dose: 333.0 mg/kg/injection, schedule: Q01DX Z (ip), vehicle: methylcellulose (MC) 95 % of control | dose: 500.0 mg/kg/injection, schedule: Q01DX Z (ip), vehicle: methylcellulose (MC) 92 % of control

[Cl][Bi]([Cl])([c]1ccccc1)([c]1ccccc1)[c]1ccccc1
inactive: [3] 98 % of control | [4] 92 % of control | [5] 98 % of control

CC1=NN(c2ccccc2)C(=O)C1N=Nc1ccc(S(=O)(=O)Nc2cc(C)nc(C)n2)cc1 (centres undefined)
inactive: [9] 98 % of control | [10] 98 % of control | [11] 95 % of control

O=C(O)c1ccc(NCO)cc1
inactive: dose: 100.0 mg/kg/injection, schedule: Q04DX003 (ip), vehicle: acetone 94 % of control | dose: 200.0 mg/kg/injection, schedule: Q04DX003 (ip), vehicle: acetone 102 % of control | dose: 400.0 mg/kg/injection, schedule: Q04DX003 (ip), vehicle: acetone 108 % of control

CSc1nc(C)c(Br)c(Nc2ccc(C(N)=O)cc2)n1
inactive: dose: 87.5 mg/kg/injection, schedule: Q01DX009 (ip), vehicle: Klucel (hydroxypropylcellulose) (HPC) 94 % of control | dose: 175.0 mg/kg/injection, schedule: Q01DX009 (ip), vehicle: Klucel (hydroxypropylcellulose) (HPC) 91 % of control | dose: 350.0 mg/kg/injection, schedule: Q01DX009 (ip), vehicle: Klucel (hydroxypropylcellulose) (HPC) 101 % of control

O=[N+]([O-])c1ccc(N/N=C/C#Cc2ccccc2)c([N+](=O)[O-])c1
inactive: dose: 50.0 mg/kg/injection, schedule: Q04DX002 (ip), vehicle: saline with Tween-80 88 % of control

CCC(CC)NC(CC)COC(=O)c1ccc(N)cc1 (centres undefined)
inactive: [17] 97 % of control | [18] 107 % of control

COC(=O)c1ccc2c(c1)NP(=O)(c1ccccc1)S2 (centres undefined)
inactive: dose: 75.0 mg/kg/injection, schedule: Q01DX001 (ip), vehicle: saline 98 % of control | dose: 150.0 mg/kg/injection, schedule: Q01DX001 (ip), vehicle: saline 104 % of control | dose: 300.0 mg/kg/injection, schedule: Q01DX001 (ip), vehicle: saline 98 % of control
